Tests used:
Assay type in all cases: in vivo
Fusarium = assay: Efficacy on corn seed in Illinois, soil inoculated with Fusarium; settings: for Plants per acre 14DAP / Plants per acre 28DAP: Fusarium-inoculated soil; for Plants per acre 14DAP: 14 days after planting; for Plants per acre 28DAP: 28 days after planting; for % disease: number of plants with Fusarium infection
Protocol: Corn seeds were treated with 1 fluid ounce per one hundred weight (fl oz/cwt) or 65 mls/100 kg seed of the Formulations of Examples 1 and 4 prior to being planted in Illinois. Untreated seeds (“UTC”) were planted to assess the disease impact in stand establishment. Besides the control, commercially available and known fungicides were applied to determine the effectiveness of formulations of the present invention. Maxim® XL (Maxim is a registered trademark of Syngenta) is a fungicide containing 21% fludioxonil and 8.4% mefenoxam in a proprietary formulation. Apron XL® (Apron XL is a registered trademark of Syngenta) is fungicide containing 33.3% of mefenoxam in a proprietary formulation. Metalaxyl was applied in a 30.1% formulation and metconazole was applied in an approximately 40% dispersion with approximately 4% glycerine and other inert ingredients.
At planting, the soil was inoculated with a fungus of the genus Fusarium, a common corn plant pathogen that causes stalk rot disease, to assess field performance and seedling protection of the above formulas.
“Plants per acre” was determined to establish stand density. “% disease” was calculated by observing number of plants with Fusarium infection. The “height (cm) on roots” was determined. Stand Density and % Disease of Illinois Corn Plants after Seed Treatment.”

Rhizoctonia = assay: Efficacy on corn seed in Ohio, soil inoculated with Rhizoctonia
Protocol: Corn seeds were treated with 1 fluid ounce per one hundred weight (fl oz/cwt) of the Formulations of Examples 1 and 4 prior to being planted in Ohio. Untreated seeds were planted to assess the disease impact in stand establishment. Besides the control, commercially available and known fungicides were applied to determine the effectiveness of formulations of the present invention.
At planting, the soil was inoculated with a fungus of the genus Rhizoctonia, a common corn plant pathogen that causes rot disease, to assess field performance and seedling protection of the above formulas.
“Plants per acre” was determined to establish stand density. Stand Density of Ohio Corn Plants after Seed Treatment.”

Corn seeds = assay: Efficacy on corn seeds in Mississippi (emergence and yield)

Structure (SMILES)	Height (cm) on roots (Fusarium) [cm]	Plants per acre 14DAP (Fusarium) [plants per acre]	Plants per acre 28DAP (Fusarium) [plants per acre]	% disease (Fusarium) [%]	Plants per acre 14DAP (Rhizoctonia) [plants per acre]	Plants per acre 28DAP (Rhizoctonia) [plants per acre]	Yield (bu/A) (Corn seeds)	Yield (kg/hectare) (Corn seeds)	% Emergence 20DAP (Corn seeds) [%]	% Emergence 35DAP (Corn seeds) [%]
COCC(=O)N(c1c(C)cccc1C)C(C)C(=O)OC (centres unmarked) [Metalaxyl, metalaxyl]	61.0	25352	26049	18.0	22400	28700	154	9662.3	91.5	83.3
CC1(C)CCC(Cc2ccc(Cl)cc2)C1(O)Cn1cncn1 (centres unmarked) [Metconazole, metconazole]	57.3	28401	29011	37.6	28875	28700	155.5	9756.4	80.8	84.8
